Among the data in ChEMBL document CHEMBL2057103, “Synthesis and biological activity of novel bifunctional isoxazolidinyl polycyclic aromatic hydrocarbons” (Bioorg Med Chem, 2012) are IC50 and Activity values, retold here.

In one assay the test system is HeLa. Briefly: Cytotoxicity against human HeLa cells after 20 hrs by MTS assay. Type of assay: functional, cell-based.
For the next assay, the system named is A549. As to the kind of experiment: Cytotoxicity against human A549 cells after 20 hrs by SRB assay. It is filed as functional, cell-based. As to conditions: A549, 20 h.
For the next assay, the system named is MOLT-3. Briefly: Cytotoxicity against human MOLT3 cells after 20 hrs by MTS assay. Type of assay: functional, cell-based. As to conditions: MOLT-3, 20 h.
Another assay has as its system THP-1. As to the kind of experiment: Cytotoxicity against human THP1 cells after 20 hrs by MTS assay. It is filed as functional, cell-based. As to conditions: THP-1, 20 h.
Another assay concerns U-937. As to the kind of experiment: Cytotoxicity against human U937 cells after 20 hrs by MTS assay. The conditions noted are these: U-937, 20 h. Type of assay: functional, cell-based. A general note: Tetrazolium assays rely on reduction of a dye to a coloured formazan, in cell work by metabolically active cells.
In the next assay the test system is Vero. Briefly: Cytotoxicity against african green monkey Vero cells after 20 hrs by MTS assay. It is filed as cell-based. As to conditions: Chlorocebus sabaeus.
Assay [1] concerns Nucleic Acid. Briefly: Binding affinity to Escherichia coli phiX174 RF1 DNA poly-d(G-C)2 fragment assessed as DNA unwinding in presence of topoisomerase 1 after 30 mins by electrophoresis. Type of assay: nucleic-acid assay.
In assay [2] the test system is Nucleic Acid. As to the kind of experiment: Binding affinity to Escherichia coli phiX174 RF1 DNA poly GC fragment assessed as DNA unwinding in presence of topoisomerase 1 after 30 mins by electrophoresis. It is filed as nucleic-acid assay.

SMILES strings stand for the structures. pIC50: −log10 of the molar value. Calls of active or inactive are those of the source. No cut-off for these calls is given here.

The pIC50 is −log10 of the IC50, conventionally taken in molar units. As for `OC[C@H]1C[C@H](c2ccc3ccc4cccc5ccc2c3c45)N(Cc2ccccc2O)O1` (racemic), the negative logarithm of the IC50 (pIC50) in the assay with HeLa is 4.96; with A549, 5.05; with MOLT-3, 4.89; in the assay on THP-1, 4.82; in the assay on U-937, 4.06; in the assay with Vero it was 3.99.

As to `OC[C@@H]1C[C@H](c2ccc3ccc4cccc5ccc2c3c45)N(Cc2ccccc2O)O1`, the outcome in the assay on Nucleic Acid [1] was Active.

Regarding `OC[C@@H]1C[C@H](c2ccc3ccc4cccc5ccc2c3c45)N(Cc2ccccc2O)O1` (racemic) [listing 1 of 2 here], the outcome in the assay on Nucleic Acid [2] was Active.

Turning to `OC[C@@H]1C[C@H](c2ccc3ccc4cccc5ccc2c3c45)N(Cc2ccccc2O)O1` (racemic) [listing 2 of 2 here], the pIC50 in the assay on HeLa is 5.40; with A549, 5.70; in the assay with MOLT-3 it was 5.30; with THP-1 it was 5.15; in the assay on U-937, 4.49; in the assay on Vero, 4.43.
